Measured values reported in ChEMBL document CHEMBL5303764, “Data for DCP probe BI-3812” (2023).
Calls of active or inactive are those of the source. The calls are words filed in the database; no cut-off is given here.

What was measured:
[1] = molecular target: T1, B-cell lymphoma 6 protein (Homo sapiens, UniProt P41182); assay: BCL6:BCOR ULight TR-FRET
[2] = molecular target: Alpha-1D adrenergic receptor (Homo sapiens) (UniProt P25100); settings: Compound concentration 10.0 uM
[3] = molecular target: Ribosomal protein S6 kinase alpha-5 (Homo sapiens) (UniProt O75582); assay: RPS6KA5 Invitrogen Lab (UK) kinase screen (BI); settings: Compound concentration 1.0 uM
[4] = molecular target: Cannabinoid receptor 2 (Homo sapiens) (UniProt P34972); assay: CB2/PERIPH/H Eurofins SafetyScreen44 (BI); settings: Compound concentration 10.0 uM
[5] = molecular target: L-type Ca2+ channel (dihydropyridine site), Cav1.2 alpha-1C (Rattus norvegicus, UniProt P22002); assay: CA+/DHPSI/R Eurofins SafetyScreen44 (BI); settings: rat brain, probe [3H](+)PN200-110, compound concentration 10 uM, read-out: % Ctrl
[6] = molecular target: Ribosomal protein S6 kinase alpha-3 (Homo sapiens) (UniProt P51812); assay: RPS6KA3 Invitrogen Lab (UK) kinase screen (BI); settings: Compound concentration 1.0 uM
[7] = molecular target: Prostaglandin G/H synthase 2 (Homo sapiens) (UniProt P35354); assay: COX-2 Eurofins SafetyScreen44 (BI); settings: Compound concentration 10.0 uM
[8] = molecular target: Mu-type opioid receptor (Homo sapiens) (UniProt P35372); settings: Compound concentration 10.0 uM
[9] = molecular target: Histamine H1 receptor (Homo sapiens) (UniProt P35367); settings: Compound concentration 10.0 uM
[10] = molecular target: Cannabinoid receptor 1 (Homo sapiens) (UniProt P21554); assay: CB1(HU)_AGON Eurofins SafetyScreen44 (BI); settings: filed as agonist, Compound concentration 10.0 uM
[11] = molecular target: MAP kinase-activated protein kinase 2 (Homo sapiens) (UniProt P49137); assay: MAPKAPK2 Invitrogen Lab (UK) kinase screen (BI); settings: Compound concentration 1.0 uM
[12] = molecular target: Interleukin-1 receptor-associated kinase 4 (Homo sapiens) (UniProt Q9NWZ3); assay: IRAK4 Invitrogen Lab (UK) kinase screen (BI); settings: Compound concentration 1.0 uM
[13] = molecular target: T1, B-cell lymphoma 6 protein; assay: BCL6::NCOR LUMIER in cells
[14] = molecular target: Muscarinic acetylcholine receptor M4 (Homo sapiens) (UniProt P08173); settings: Compound concentration 10.0 uM
[15] = molecular target: Dual specificity mitogen-activated protein kinase kinase 6 (Homo sapiens) (UniProt P52564); assay: MAP2K6 Invitrogen Lab (UK) kinase screen (BI); settings: Compound concentration 1.0 uM
[16] = molecular target: Prostaglandin G/H synthase 1 (Homo sapiens) (UniProt P23219); assay: COX-1 Eurofins SafetyScreen44 (BI); settings: Compound concentration 10.0 uM
[17] = molecular target: Mitogen-activated protein kinase 1 (Homo sapiens) (UniProt P28482); assay: MAPK1 Invitrogen Lab (UK) kinase screen (BI); settings: Compound concentration 1.0 uM
[18] = molecular target: Vasopressin V1a receptor (Homo sapiens) (UniProt P37288); assay: V1A/HUM Eurofins SafetyScreen44 (BI); settings: Compound concentration 10.0 uM
[19] = molecular target: Casein kinase I isoform alpha (Homo sapiens) (UniProt P48729); assay: CSNK1A1 Invitrogen Lab (UK) kinase screen (BI); settings: Compound concentration 1.0 uM
[20] = molecular target: Mitogen-activated protein kinase 9 (Homo sapiens) (UniProt P45984); assay: MAPK9 Invitrogen Lab (UK) kinase screen (BI); settings: Compound concentration 1.0 uM
[21] = molecular target: Serine/threonine-protein kinase PAK 4 (Homo sapiens) (UniProt O96013); assay: PAK4 Invitrogen Lab (UK) kinase screen (BI); settings: Compound concentration 1.0 uM
[22] = molecular target: Endothelin-1 receptor (Homo sapiens) (UniProt P25101); assay: ETA/H Eurofins SafetyScreen44 (BI); settings: Compound concentration 10.0 uM
[23] = molecular target: Zinc finger and BTB domain-containing protein 17 (Homo sapiens, UniProt Q13105); assay: SPR (ZBTB17), Ontario institute for cancer research
[24] = molecular target: Serine/threonine-protein kinase TBK1 (Homo sapiens) (UniProt Q9UHD2); assay: TBK1 Invitrogen Lab (UK) kinase screen (BI); settings: Compound concentration 1.0 uM
[25] = molecular target: Glycogen synthase kinase-3 beta (Homo sapiens) (UniProt P49841); assay: GSK3B Invitrogen Lab (UK) kinase screen (BI); settings: Compound concentration 1.0 uM
[26] = molecular target: 5-hydroxytryptamine receptor 5A (Homo sapiens) (UniProt P47898); settings: Compound concentration 10.0 uM
[27] = molecular target: Alpha-1B adrenergic receptor (Homo sapiens) (UniProt P35368); settings: Compound concentration 10.0 uM
[28] = molecular target: Tyrosine-protein kinase ITK/TSK (Homo sapiens) (UniProt Q08881); assay: ITK Invitrogen Lab (UK) kinase screen (BI); settings: Compound concentration 1.0 uM
[29] = molecular target: D(4) dopamine receptor (Homo sapiens) (UniProt P21917); settings: Compound concentration 10.0 uM
[30] = molecular target: Sodium-dependent serotonin transporter (Homo sapiens) (UniProt P31645); settings: Compound concentration 10.0 uM
[31] = molecular target: 3',5'-cyclic-AMP phosphodiesterase 4D (Homo sapiens) (UniProt Q08499); assay: PDE4D2 Eurofins SafetyScreen44 (BI); settings: Compound concentration 10.0 uM
Rattus norvegicus = organism: Rattus norvegicus; settings: Compound concentration 10.0 uM
[32] = molecular target: Muscarinic acetylcholine receptor M1 (Homo sapiens) (UniProt P11229); settings: Compound concentration 10.0 uM
[33] = molecular target: BDNF/NT-3 growth factors receptor (Homo sapiens) (UniProt Q16620); assay: NTRK2 Invitrogen Lab (UK) kinase screen (BI); settings: Compound concentration 1.0 uM
[34] = molecular target: Mitogen-activated protein kinase 8 (Homo sapiens) (UniProt P45983); assay: MAPK8 Invitrogen Lab (UK) kinase screen (BI); settings: Compound concentration 1.0 uM
[35] = molecular target: D(3) dopamine receptor (Homo sapiens) (UniProt P35462); settings: Compound concentration 10.0 uM
[36] = molecular target: cGMP-inhibited 3',5'-cyclic phosphodiesterase 3A (Homo sapiens) (UniProt Q14432); assay: PDE3A Eurofins SafetyScreen44 (BI); settings: Compound concentration 10.0 uM
[37] = molecular target: Inhibitor of nuclear factor kappa-B kinase subunit beta (Homo sapiens) (UniProt O14920); assay: IKBKB Invitrogen Lab (UK) kinase screen (BI); settings: Compound concentration 1.0 uM
[38] = molecular target: Sodium-dependent dopamine transporter (Homo sapiens) (UniProt Q01959); assay: DATRANS/HUM Eurofins SafetyScreen44 (BI); settings: Compound concentration 10.0 uM
[39] = molecular target: GABA-A receptor; anion channel (Rattus norvegicus) (UniProt O09028+P15431+P18506+P18508+P19969+P20236+P23574+P23576+P28471+P28473+P30191+P62813+P63079+P63138+Q91ZM7+Q9ES14); settings: Compound concentration 10.0 uM
[40] = molecular target: 3-phosphoinositide-dependent protein kinase 1 (Homo sapiens) (UniProt O15530); assay: PDK1 Invitrogen Lab (UK) kinase screen (BI); settings: Compound concentration 1.0 uM
[41] = molecular target: Beta-2 adrenergic receptor (Homo sapiens) (UniProt P07550); assay: BETA2/HUM Eurofins SafetyScreen44 (BI); settings: filed as antagonist, Compound concentration 10.0 uM

Sequence of Alpha-1B adrenergic receptor (Homo sapiens) (P35368 whole entry): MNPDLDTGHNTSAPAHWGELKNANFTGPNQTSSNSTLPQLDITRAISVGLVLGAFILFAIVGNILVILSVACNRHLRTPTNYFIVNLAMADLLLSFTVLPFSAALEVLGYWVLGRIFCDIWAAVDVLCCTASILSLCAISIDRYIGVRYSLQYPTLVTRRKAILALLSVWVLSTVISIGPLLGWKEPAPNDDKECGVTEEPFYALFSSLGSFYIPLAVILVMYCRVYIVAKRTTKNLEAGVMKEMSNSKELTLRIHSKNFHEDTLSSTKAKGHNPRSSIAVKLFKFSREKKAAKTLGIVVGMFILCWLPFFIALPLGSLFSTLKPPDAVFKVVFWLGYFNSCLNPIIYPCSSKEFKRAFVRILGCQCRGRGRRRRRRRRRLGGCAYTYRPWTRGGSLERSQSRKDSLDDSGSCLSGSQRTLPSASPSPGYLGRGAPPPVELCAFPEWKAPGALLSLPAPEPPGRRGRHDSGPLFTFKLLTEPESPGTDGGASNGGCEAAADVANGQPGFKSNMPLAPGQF
Sequence of Histamine H1 receptor (Homo sapiens) (P35367 whole entry): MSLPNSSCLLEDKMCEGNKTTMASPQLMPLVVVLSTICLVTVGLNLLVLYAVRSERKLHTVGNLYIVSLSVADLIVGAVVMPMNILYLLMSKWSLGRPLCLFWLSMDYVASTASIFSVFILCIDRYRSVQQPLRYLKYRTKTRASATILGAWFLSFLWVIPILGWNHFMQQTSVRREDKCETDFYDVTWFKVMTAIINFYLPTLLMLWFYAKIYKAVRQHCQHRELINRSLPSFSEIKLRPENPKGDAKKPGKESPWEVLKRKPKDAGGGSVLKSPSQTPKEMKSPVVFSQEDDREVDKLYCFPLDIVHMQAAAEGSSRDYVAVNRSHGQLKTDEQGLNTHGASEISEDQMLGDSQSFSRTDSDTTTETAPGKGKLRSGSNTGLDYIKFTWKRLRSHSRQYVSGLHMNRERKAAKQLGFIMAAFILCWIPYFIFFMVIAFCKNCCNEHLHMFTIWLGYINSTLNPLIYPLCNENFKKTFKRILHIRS
Sequence of D(3) dopamine receptor (Homo sapiens) (P35462 whole entry): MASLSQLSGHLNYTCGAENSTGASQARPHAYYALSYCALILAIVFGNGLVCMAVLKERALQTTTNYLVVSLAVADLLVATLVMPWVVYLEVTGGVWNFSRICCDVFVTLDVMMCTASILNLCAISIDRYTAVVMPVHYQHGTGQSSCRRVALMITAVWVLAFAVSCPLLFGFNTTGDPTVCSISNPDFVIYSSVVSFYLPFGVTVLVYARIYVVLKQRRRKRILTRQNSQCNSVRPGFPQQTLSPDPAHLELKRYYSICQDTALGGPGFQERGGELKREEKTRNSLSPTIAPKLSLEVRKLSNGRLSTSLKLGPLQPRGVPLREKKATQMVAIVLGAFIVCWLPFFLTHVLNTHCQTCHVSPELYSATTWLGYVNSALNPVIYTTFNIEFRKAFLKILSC
Sequence of Alpha-1D adrenergic receptor (Homo sapiens) (P25100 whole entry): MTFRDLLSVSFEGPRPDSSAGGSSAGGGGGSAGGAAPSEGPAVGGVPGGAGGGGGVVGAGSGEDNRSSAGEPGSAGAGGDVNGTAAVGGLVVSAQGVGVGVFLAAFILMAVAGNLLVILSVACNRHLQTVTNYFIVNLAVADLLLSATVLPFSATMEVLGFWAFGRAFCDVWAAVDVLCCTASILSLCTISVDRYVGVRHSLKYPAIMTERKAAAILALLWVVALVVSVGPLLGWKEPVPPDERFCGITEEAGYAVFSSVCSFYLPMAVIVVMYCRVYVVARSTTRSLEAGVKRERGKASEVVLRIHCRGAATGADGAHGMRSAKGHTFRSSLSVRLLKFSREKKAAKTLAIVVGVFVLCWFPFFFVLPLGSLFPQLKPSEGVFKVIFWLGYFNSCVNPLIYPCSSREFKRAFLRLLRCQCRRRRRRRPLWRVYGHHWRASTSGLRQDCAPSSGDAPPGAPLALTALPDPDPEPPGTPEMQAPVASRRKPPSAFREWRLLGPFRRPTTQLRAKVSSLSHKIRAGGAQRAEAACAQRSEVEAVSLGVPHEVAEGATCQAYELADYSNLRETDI
Sequence of Sodium-dependent serotonin transporter (Homo sapiens) (P31645 whole entry, looked up): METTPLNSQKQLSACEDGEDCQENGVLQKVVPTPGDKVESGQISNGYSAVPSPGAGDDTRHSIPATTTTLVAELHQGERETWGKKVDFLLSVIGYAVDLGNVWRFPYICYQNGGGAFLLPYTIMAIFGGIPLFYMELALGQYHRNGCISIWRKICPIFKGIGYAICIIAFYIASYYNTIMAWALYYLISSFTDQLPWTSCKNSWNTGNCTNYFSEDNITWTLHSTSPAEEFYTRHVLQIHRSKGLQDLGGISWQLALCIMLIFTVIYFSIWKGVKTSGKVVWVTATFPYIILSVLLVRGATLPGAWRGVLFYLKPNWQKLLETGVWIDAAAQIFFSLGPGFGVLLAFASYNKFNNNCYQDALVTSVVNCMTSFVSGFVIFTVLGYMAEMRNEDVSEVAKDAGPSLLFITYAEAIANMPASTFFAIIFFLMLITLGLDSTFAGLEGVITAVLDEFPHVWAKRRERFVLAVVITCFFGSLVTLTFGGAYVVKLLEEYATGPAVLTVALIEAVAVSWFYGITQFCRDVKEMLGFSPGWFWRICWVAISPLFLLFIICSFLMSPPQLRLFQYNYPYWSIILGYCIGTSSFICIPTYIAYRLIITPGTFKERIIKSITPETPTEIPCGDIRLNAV
Sequence of Muscarinic acetylcholine receptor M1 (Homo sapiens) (P11229 whole entry): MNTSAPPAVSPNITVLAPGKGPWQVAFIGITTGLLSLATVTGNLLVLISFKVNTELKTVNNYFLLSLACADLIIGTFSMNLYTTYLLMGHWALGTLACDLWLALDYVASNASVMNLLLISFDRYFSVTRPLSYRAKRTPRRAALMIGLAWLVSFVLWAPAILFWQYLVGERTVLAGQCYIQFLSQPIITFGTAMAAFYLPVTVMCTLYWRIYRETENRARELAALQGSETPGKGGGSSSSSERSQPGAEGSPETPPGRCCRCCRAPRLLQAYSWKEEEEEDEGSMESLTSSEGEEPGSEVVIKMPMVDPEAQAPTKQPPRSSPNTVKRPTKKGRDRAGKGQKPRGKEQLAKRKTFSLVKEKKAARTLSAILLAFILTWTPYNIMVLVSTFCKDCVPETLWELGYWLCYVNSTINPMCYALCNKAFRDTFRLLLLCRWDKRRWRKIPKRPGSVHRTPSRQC
Sequence of Mu-type opioid receptor (Homo sapiens) (P35372 whole entry): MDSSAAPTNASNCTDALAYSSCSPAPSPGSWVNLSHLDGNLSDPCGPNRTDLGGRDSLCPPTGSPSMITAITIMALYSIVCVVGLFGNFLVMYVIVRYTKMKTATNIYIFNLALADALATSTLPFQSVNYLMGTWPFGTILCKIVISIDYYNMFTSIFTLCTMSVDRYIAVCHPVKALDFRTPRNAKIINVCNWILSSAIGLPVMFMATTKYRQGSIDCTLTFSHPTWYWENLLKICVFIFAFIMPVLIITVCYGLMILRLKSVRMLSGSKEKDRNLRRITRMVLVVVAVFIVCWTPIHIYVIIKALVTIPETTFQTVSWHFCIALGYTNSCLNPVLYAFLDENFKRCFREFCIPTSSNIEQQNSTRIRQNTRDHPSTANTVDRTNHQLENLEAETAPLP
Sequence of Muscarinic acetylcholine receptor M4 (Homo sapiens) (P08173 whole entry): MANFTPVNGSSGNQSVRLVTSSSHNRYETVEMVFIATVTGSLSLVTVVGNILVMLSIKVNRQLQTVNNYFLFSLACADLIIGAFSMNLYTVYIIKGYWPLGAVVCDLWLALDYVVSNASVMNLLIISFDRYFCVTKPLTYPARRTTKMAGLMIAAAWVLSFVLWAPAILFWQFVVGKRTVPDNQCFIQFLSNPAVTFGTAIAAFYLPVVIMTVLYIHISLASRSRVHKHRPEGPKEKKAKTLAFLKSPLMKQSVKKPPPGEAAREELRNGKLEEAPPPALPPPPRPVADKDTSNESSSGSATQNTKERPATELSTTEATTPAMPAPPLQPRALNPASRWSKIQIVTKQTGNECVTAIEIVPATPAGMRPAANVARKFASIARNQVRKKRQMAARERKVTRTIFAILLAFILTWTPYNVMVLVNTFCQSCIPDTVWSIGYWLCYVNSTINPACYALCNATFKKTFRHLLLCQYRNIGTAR
Sequence of 5-hydroxytryptamine receptor 5A (Homo sapiens) (P47898 whole entry): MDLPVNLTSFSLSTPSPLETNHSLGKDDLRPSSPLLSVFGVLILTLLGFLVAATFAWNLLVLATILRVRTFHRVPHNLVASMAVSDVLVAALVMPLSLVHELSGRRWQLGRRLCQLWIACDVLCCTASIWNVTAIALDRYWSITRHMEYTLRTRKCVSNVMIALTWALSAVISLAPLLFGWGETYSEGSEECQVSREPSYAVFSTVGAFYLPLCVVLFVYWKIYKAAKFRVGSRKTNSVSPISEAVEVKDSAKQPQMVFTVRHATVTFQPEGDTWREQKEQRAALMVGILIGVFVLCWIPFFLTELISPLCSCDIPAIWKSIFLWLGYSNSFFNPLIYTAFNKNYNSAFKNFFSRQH
Sequence of D(4) dopamine receptor (Homo sapiens) (P21917 whole entry): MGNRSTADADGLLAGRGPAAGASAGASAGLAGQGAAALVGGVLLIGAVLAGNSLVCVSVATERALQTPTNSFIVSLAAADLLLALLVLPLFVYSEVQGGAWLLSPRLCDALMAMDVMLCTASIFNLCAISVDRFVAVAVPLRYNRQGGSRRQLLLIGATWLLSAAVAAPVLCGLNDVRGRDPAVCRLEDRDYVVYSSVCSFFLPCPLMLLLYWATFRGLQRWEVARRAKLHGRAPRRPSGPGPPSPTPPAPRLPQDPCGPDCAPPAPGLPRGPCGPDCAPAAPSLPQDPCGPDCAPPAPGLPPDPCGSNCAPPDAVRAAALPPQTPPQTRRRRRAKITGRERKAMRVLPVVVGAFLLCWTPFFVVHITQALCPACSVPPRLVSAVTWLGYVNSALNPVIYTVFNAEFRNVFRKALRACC

IC50 [1]: ≤ 3 nM (active)
inhibition [2]: 2.72%
residual activity [3]: 103%
residual activity [6]: 93%
inhibition [8]: 17.4%
inhibition [9]: 2.93%
residual activity [11]: 91%
residual activity [12]: 106%
IC50 [13]: 40 nM (active)
inhibition [14]: 74.1%
residual activity [15]: 112%
residual activity [17]: 98%
residual activity [19]: 91%
residual activity [20]: 99%
residual activity [21]: 82%
Kd [23]: No binding
residual activity [24]: 97%
residual activity [25]: 97%
inhibition [26]: 12.9%
inhibition [27]: 9.69%
residual activity [28]: 83%
inhibition [29]: 17.7%
inhibition [30]: 14.1%
inhibition (Rattus norvegicus): 49.5%
inhibition [32]: 12.9%
residual activity [33]: 88%
residual activity [34]: 82%
inhibition [35]: 14.6%
residual activity [37]: 96%
inhibition [39]: 39.6%
residual activity [40]: 83%
Structure (SMILES): CNC(=O)COc1cc2cc(Nc3nc(N4CCC(C(=O)N(C)C)CC4)ncc3Cl)cc(OC)c2n(C)c1=O
residual activity [4]: 113%
activity at 10 µM [5]: 95% (not active)
residual activity [7]: 74%
residual activity [10]: 123%
residual activity [16]: 118%
residual activity [18]: 101%
residual activity [22]: 104%
residual activity [31]: 121%
residual activity [36]: 142%
residual activity [38]: 101%
residual activity [41]: 92%
